Results from patent US20130336950A1, “MATERIAL COMBINATION FOR TREATING INFLAMMATORY OR INFECTIOUS DISEASES” (priority 2010, published 2013).
“Also recorded” adds a separate entry of the source. Ends that are not written are not given here.

How the values were obtained:
[1] = test system: Bifidobacterium adolescentis; assay: antimicrobial radial diffusion assay, Bif. adolescentis, with and without DTT; format: cell-based; details: for antimicrobial activity (diameter of the inhibition zones): anaerobic, 48 h
Description: (§1) During execution of the assay in 10 mM sodium phosphate with 0.3 mg/ml of trypticase soya broth (TSB) and 1% (w/v) agarose with low EEO (Sigma-Aldrich), incubation took place in anaerobic conditions with antimicrobial peptides and 0-2 mM DTT. The presence of a reducing environment was controlled by adding the redox indicator resazurin. After 48-h incubation, the diameter of the inhibition zones was measured and was evaluated statistically using GraphPad Prism 4.03 and Student's t-test.
(§2) Small concentrations of the reducing agent dithiothreitol (DTT) were added to the assay medium, whereas medium without DTT served as control.

[2] = test system: Bacteroides vulgatus; assay: antimicrobial radial diffusion assay, Bacteroides vulgatus; format: cell-based; details: 48 h
Description: as §1, §2

[3] = molecular target: T1, human thioredoxin (Homo sapiens, UniProt P10599); assay: thioredoxin reductase assay (reduction of hBD-1, RP-HPLC); format: biochemical; details: 10 μM hBD-1, 0.5-1.5 μM thioredoxin, 100 nM thioredoxin reductase, 0.8 mM NADPH, 30 minutes, 37° C.
T1 sequence (P10599 1-105): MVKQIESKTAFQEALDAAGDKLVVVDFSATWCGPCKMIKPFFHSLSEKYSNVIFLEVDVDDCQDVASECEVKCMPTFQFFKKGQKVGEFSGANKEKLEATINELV
Description: FIG. 4 Thioredoxin (TRX) co-localized with hBD-1 and is capable of catalyzing the reduction of hBD-1. (A) immuno-histochemistry staining of hBD-1 and thioredoxin of human colon sections. Magnification bars=100 μm. (B) 10 μM oxidized hBD-1 was incubated with or without 0.5, 1.0 and 1.5 μM human thioredoxin and 100 nM rat thioredoxin reductase for 30 minutes at 37° C. in 0.10 M potassium phosphate-2 mM EDTA, pH 7.0 buffer and 0.8 mM NADPH. Incubation assays were analyzed by RP-HPLC and the transformation of oxidized to reduced hBD-1 was observed. hBD-1 ox=oxidized hBD-1, hBD-1 red=reduced hBD-1. […] Formation of inhibition zones was investigated after incubation for 48 hours, representative assays are shown.
The thioredoxin reductase assay was carried out as follows: For this, oxidized hBD-1 was incubated with 0.5-1.5 μM thioredoxin or protein disulfide-isomerase in the presence of 100 nM thioredoxin reductase and 0.8 mM NADPH in 0.1 M […] phosphate buffer-2 mM EDTA. The incubation mixtures were analyzed by RP-HPLC, with which the transformation of oxidized to reduced hBD-1 peptide could be observed.

[4] = test system: Bifidobacterium adolescentis Ni3,29c; assay: transmission electron microscopy of the bacteria; format: cell-based; details: 200 μg/ml, 2 hours, 37° C., anaerobic
Description: For transmission electron microscopy of the bacteria, approx. 2×10^8 CFU (colony forming units) of Bifidobacterium adolescentis Ni3,29c were incubated anaerobically for two hours at 37° C. in the absence or in the presence of 200 μg/ml synthetic defensin. The bacteria were centrifuged, fixed in prewarmed Karnovsky's solution and stored at 4° C. for 24 hours. After centrifugation, the pellet was embedded in 3.5% agarose at 37° C., coagulated at room temperature, cut into small blocks and fixed in Karnovsky's solution again. The post-fixing was based on 1.0% osmium tetroxide with 1.5% potassium ferrocyanide in 0.1 M cacodylate buffer. After embedding in glycidyl ether, the blocks were cut with an ultramicrotome (Ultracut, Reichert, Vienna, Austria). Ultrathin sections (30 nm) were applied on copper grids and analyzed with a Zeiss LIBRA 120 transmission electron microscope (Carl Zeiss, Oberkochen, Germany) at 120 kV.

[5] = test system: Bifidobacterium adolescentis, Bif. breve, Bif. longum and Bif. bifidum; assay: radial diffusion assay, oxidized and reduced peptide against Bifidobacterium spp.; format: cell-based; details: oxidized or reduced peptide 1.5 μg, anaerobic, medium without DTT, 48 h
Description: as §1
(§3) (FIG. 3A). […] Furthermore, the same assay was carried out with the Gram-positive strains Lactobacillus acidophilus and L. fermentum, and with the Gram-negative strain Bacteroides vulgatus and the facultatively anaerobic strain Escherichia coli K12 (FIG. 3B).

[6] = test system: Candida albicans; assay: flow cytometry assay, depolarized yeasts, clinical Candida isolates; format: cell-based; details: 40 μg/ml, 90-minute incubation, 5 clinical isolates
Description: (A) 1.5 μg oxidized and reduced hBD-1 was incubated with Bifidobacterium spp., Lactobacillus spp., Bacteroides vulgatus (B) and Escherichia coli. For Lactobacilli, the amount of defensin was 3 μg. The formation of inhibition zones was investigated after 48 hours, representative radial diffusion assays from 3 experiments are shown. […] The proportion of depolarized yeasts after 90-minute incubation with reduced or oxidized hBD-1, measured with a flow cytometry assay, is shown. hBD-1 red=reduced hBD-1, hBD-1 ox=oxidized hBD-1. The mean values+standard deviation of two experiments, carried out in each case in duplicate, are shown, (D) cysteine amino acids in the hBD-1 peptide were exchanged for alanine or serine and the hydrophobicity of the hBD-1 variants was analyzed by RP-HPLC. (E) flow cytometry assay for detecting bacterial membrane depolarization of Bifidobacterium adolescentis after incubation with reduced or oxidized hBD-1. Squares show an incubation time of 30 minutes, circles a time of 90 minutes. […] Fixed bacteria were analyzed by transmission microscopy, magnification bars=200 nm.
Flow-cytometry antimicrobial assay, in which the membrane depolarization of the bacteria was measured, was carried out as described in: Nuding, S., et al., “Antibacterial activity of human defensins on anaerobic intestinal bacterial species: a major role of HBD-3.” Microbes. […]

[7] = test system: Bifidobacterium adolescentis; assay: flow-cytometry antimicrobial assay, bacterial membrane depolarization; format: cell-based
Description: Flow-cytometry antimicrobial assay, in which the membrane depolarization of the bacteria was measured, was carried out as described in: Nuding, S., et al., “Antibacterial activity of human defensins on anaerobic intestinal bacterial species: a major role of HBD-3.” Microbes. Infect. 11 (3), 384-393 (2009).
In order to investigate whether the observed inhibition of growth of Gram-positive anaerobes is bacteriostatic or bactericidal, flow-cytometry antimicrobial assays were carried out with bacterial membrane depolarization as the reading system. […] This pointed to a rapid bactericidal effect of the linear hBD-1.

[8] = test system: Escherichia coli K12; assay: radial diffusion assay, Escherichia coli K12; format: cell-based; details: oxidized or reduced peptide 1.5 μg, medium without DTT, 48 h
Description: as §1, §3

[9] = test system: Lactobacillus acidophilus and L. fermentum; assay: radial diffusion assay, Lactobacilli; format: cell-based, Lactobacillus spp.; details: oxidized or reduced peptide 3 μg, medium without DTT, 48 h
Description: as §1, §3

[10] = RP-HPLC analysis of hydrophobicity; format: physicochemical; details: water/acetonitrile gradient; reduced hBD-1 vs oxidized hBD-1, variants vs reduced hBD-1
Text: For the high-performance liquid chromatography (HPLC) analysis, a system of the Agilent 1200 series and a Vydac 218TP-C18 column were used, using a water/acetonitrile gradient with trifluoroacetic acid as ion-pair reagent.

[11] = reducing conditions (DTT added, 1 mM or 2 mM)
[12] = with or without DTT (1 mM or 2 mM), 0.5-2.0 μg peptide
[13] = 30 minutes of incubation, 60 μg/μl
[14] = oxidized or reduced peptide 1.5 μg, medium without DTT

Row | Substance | antimicrobial activity (diameter of the inhibition zones) ([1]; medium without DTT) | antimicrobial activity (diameter of the inhibition zones) [1, 11] | antimicrobial activity (inhibition zones) [2, 12] | morphology of the bacterial cells [4] | antimicrobial activity (inhibition zones) [5] | antifungal activity (proportion of depolarized yeasts) [6] | membrane depolarization of the bacteria [7, 13] | antimicrobial activity (inhibition zones) [8] | antimicrobial activity (inhibition zones) [2, 14] | antimicrobial activity (inhibition zones) [9] | further results
1 | hBD-1Δ30-36: shortened variant of hBD-1 without the seven C-terminal amino acids GKAKCCK (SEQ ID No. 1) (DHYNCVSSGGQCLYSACPIFTKIQGTCYR; ends and bridges not checked; cysteine pairing not given here; UniProt P60022 33-61, looked up, fragment) | unable to inhibit the growth | unable to inhibit the growth |  |  |  |  |  |  |  |  | 
2 | human beta-defensin 1 (DHYNCVSSGGQCLYSACPIFTKIQGTCYRGKAKCCK; disulfide (positions not given here); also: three disulfides, pairing not given here) [hBD-1, synthetic human beta-defensin 1, antimicrobial peptide with three disulfide bridges] | no effect on the growth | antimicrobial activity only through reduction | did not show any antimicrobial activity; also recorded: growth-inhibiting effect was not observed |  |  |  |  |  |  |  | antimicrobial activity compared with hBD-3 ([1]; 2 mM DTT): as effective as hBD-3; antimicrobial activity ([1]; in the presence of 150 mM sodium chloride (data not shown)): disappeared; antimicrobial activity (diameter of the inhibition zones) ([1]; medium with 1 mM DTT): concentration-dependent inhibition zones; transformation of oxidized to reduced hBD-1 [3]: reduced by thioredoxin
3 | human beta-defensin 3 (GIINTLQKYYCRVRGGRCAVLSCLPKEEQIGKCSTRGRKCCRRKK; UniProt P81534 23-67, looked up) [hBD-3, reference compound] | strong antimicrobial activity | slightly reduced antimicrobial activity; also recorded: reduced activity | concentration-dependent inhibition zones | mainly attacks the bacterial membrane |  |  |  |  |  |  | 
4 | lysozyme [reference compound] |  | slightly reduced antimicrobial activity |  |  |  |  |  |  |  |  | 
5 | oxidized hBD-1: fully oxidized hBD-1 possessing all disulfide bridges (DHYNCVSSGGQCLYSACPIFTKIQGTCYRGKAKCCK; disulfide (positions not given here); also: three disulfides, pairing not given here) |  |  |  | did not show morphological damage of any kind | did not show any antimicrobial activity | no action and not | no significant depolarization | antimicrobial activity; also recorded: sensitive | no effect | no effect at all | membrane depolarization of the bacteria ([7]; 90 minutes of incubation): no significant depolarization
6 | reduced hBD-1: fully reduced, linear hBD-1 with free cysteine residues (DHYNCVSSGGQCLYSACPIFTKIQGTCYRGKAKCCK; Beta-defensin 1 reduced, free cysteines; UniProt P60022 33-68, looked up) |  |  |  | cellular disintegration | antimicrobial activity against all the strains tested | active against 4 out of 5 clinical Candida isolates; also recorded: effective antifungal activity against four out of five strains | 50% | antimicrobial activity | no effect | clear inhibition zones | effectiveness compared with the oxidized form ([7]; flow cytometry, membrane depolarization): more effective; hydrophobicity (RP-HPLC) [10]: more hydrophobic; also recorded: increase in the hydrophobicity
